The record followed here is the METLIN SMRT retention time set (Domingo-Almenara et al. 2019).

Each structure is given as a SMILES string.

This data set is described as follows: gradient 5% acetonitrile 3 min, to 50% in 2 min, to 85% in 15 min, held 3 min, 100 µL/min. To be noted: column: Zorbax Extend-C18 2.1 x 50 mm; eluents: water / acetonitrile, 0.1% formic acid. The essentials: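 Values are retention times taken from adduct peaks that software picked and an analyst inspected. The pure standards were run as mixtures of ~100 molecules on HPLC linked to a quadrupole time-of-flight mass spectrometer, in positive and negative ionization mode. A Zorbax Extend-C18 column (2.1 × 50 mm, 1.8 μm) was used at 100 μL/min with water and acetonitrile, each including 0.1% formic acid.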
Turning to `Cc1nn(C(C)C(=O)NCCN2CCOCC2)c(=O)c2nn(-c3ccccc3)c(C)c12` (centres undefined), the RP-LC retention time worked out at 615 s.

With `CCOC(=O)COc1cc(-c2ccc(C)cc2)nc2ccc(NC(=O)COc3ccccc3)cc12`, the RP-LC retention time was found to be 902 s.

For `O=C(NCCc1ccncc1)C1CCc2sc(C(=O)N3CCCC3)cc2C1` (centres undefined), the RP-LC retention time stood at 506 s. With `CCN(c1cccc(C)c1)S(=O)(=O)c1cc(-c2[nH]ncc2C(=O)N2CCCC2)oc1C`, the RP-LC retention time amounted to 819 s.

In turn, `Cn1cc(-c2nc(C(=O)Nc3ccccc3F)cs2)c2cccnc21` registered an RP-LC retention time of 1040 s. To `CN(Cc1ccccc1)C(=O)c1cn2ccncc2n1` belongs 678 s; to `O=C(C1CC1)N1CCc2sc(S(=O)(=O)NCc3ccc(F)cc3)cc2C1`, 805 s.

`COc1cccc(-c2cc(=O)n3c4ccccc4n(CC(=O)NCc4ccco4)c3n2)c1` came in with an RP-LC retention time of 864 s. Next, `COCCc1noc(-c2ccc(=O)n(CC(=O)Nc3ccccc3)c2)n1`: 695 s; `O=C([C@@H]1C[C@H](Oc2ccccc2)CN1C(=O)C1CCC1)N1CCCC1`: 750 s. Next, `Cc1ccc(-c2coc(-c3ccc(NC(=O)Cc4cccs4)cc3)n2)c(C)c1`: 1330 s; `O=C(NC1CC1)C1CCN(C(=O)c2ncn3c2COC(c2ccccc2)C3)CC1` (centres undefined): 619 s; `Cc1nnc2n1CCC(NC(=O)c1cscn1)CC2` (centres undefined): 542 s. To `CCCNc1cc(N2CCC(CCC(=O)NC(CC)CC)CC2)ncn1` belongs 656 s; to `Cc1cc(C)cc(NC(=O)N2CCC(c3cc(N)on3)CC2)c1`, 728 s. `COc1ccc(-c2csc(Nc3ncccn3)n2)cc1OC` came in with an RP-LC retention time of 824 s.

The compound `CCc1cccc(C)c1Nc1c(-c2ccc(C)cc2)nc2nc(C)cc(C)n12` showed an RP-LC retention time of 880 s. To `Cc1ccc(C2Cn3cnc(C(=O)N4CCC(C(=O)NCCCc5ccccc5)CC4)c3CO2)cc1` (centres undefined) belongs 853 s; to `CC(C)Cn1cc(S(=O)(=O)Nc2cc(F)cc(F)c2)c2cccnc21`, 994 s. For `COCC(=O)N1CC2CN(S(=O)(=O)c3cccc(F)c3)CC(C1)O2`, the RP-LC retention time amounted to 660 s. `Cc1ccc(Oc2ccc(NS(=O)(=O)c3ccc(F)cc3F)cc2)nn1` returned an RP-LC retention time of 720 s. `COc1ccc(NC(=O)Cn2ccc3ccn(Cc4ccccc4)c3c2=O)cc1OC` came in with an RP-LC retention time of 859 s.

The compound `COc1ccc(N2CCN(C(=O)Cn3nc4nc(N5CCCC5)ccn4c3=O)CC2)cc1` registered an RP-LC retention time of 639 s. To `Cc1csc(CN2CCN(C(=O)c3cc(Cl)ccc3Cl)CC2)n1` belongs 654 s. `Cc1nn(C(=O)C(C)(C)C)c(C)c1S(=O)(=O)N1CCCC1`: the RP-LC retention time came out at 1180 s. To `COc1ccc(NC(=O)N2CCN(c3nc4ccccc4nc3C(F)(F)F)CC2)c(OC)c1` belongs 1070 s; to `CC(C(=O)N1CCN(c2ccccn2)CC1)C1CCN(C(=O)c2cc3cc(Cl)ccc3[nH]2)CC1` (centres undefined), 675 s; to `Cc1ccc(Nc2nc(-c3ccc(C)cc3C)cs2)nc1`, 965 s. Next, `O=C(NCc1cccc(Br)c1)C1CCCN(C(=O)C2Sc3ccccc3NC2=O)C1` (centres undefined): 800 s; `CC(CCc1ccccc1)NC(=O)Cn1cccc1-c1nc(-c2ccc3c(c2)OCO3)no1` (centres undefined): 1090 s. To `COc1ccc(OC)c(NC(=O)Cn2cccc2-c2nnc(C3CC3)o2)c1` belongs 704 s; to `CCOC(=O)c1cccc(NC(=O)N2CCc3nc[nH]c3C2)c1`, 601 s; to `CN1CCC(N2CCN(C(=O)CCC3CCCN(c4cc(NC5CC5)ncn4)C3)CC2)CC1` (centres undefined), 534 s. `Cc1ccc(-c2noc(Cn3cnc4c(oc5ccccc54)c3=O)n2)cc1`: the RP-LC retention time was found to be 999 s. In turn, `Cc1cccc(-n2ccn(CC#N)c(=O)c2=O)c1C` registered an RP-LC retention time of 639 s.

As to `Cc1cc(=O)n(CC(=O)NCc2ccccc2)c(N2CCCCC2)n1`, the RP-LC retention time came out at 652 s. The compound `CCC(C(=O)N1CCN(c2ccccn2)CC1)n1c2ccccc2c2cnn(C)c(=O)c21` (centres undefined) yielded an RP-LC retention time of 638 s. Next, `CCOC(=O)Cc1csc(NC(=O)Cn2nc3c(cc2=O)CCCC3)n1`: 718 s; `O=C(Cn1ccc2ccc(N3CCOCC3)nc21)NCc1ccc(Br)cc1`: 915 s; `COc1ccccc1C1=NS(=O)(=O)c2cc(S(=O)(=O)N3CCOCC3)ccc2N1`: 718 s. Compound `Cc1cccc(NC(=O)N2CCC(n3cnc4ccc(C)cc4c3=O)CC2)c1` gave an RP-LC retention time of 836 s. To `C[C@H](CCC(=O)NCCS(=O)(=O)O)[C@H]1CC[C@H]2[C@@H]3CC[C@@H]4C[C@H](O)CC[C@]4(C)[C@H]3C[C@H](O)[C@]12C` belongs 724 s; to `Cc1ccc(C)c(NC(=O)Cn2nc3cc(-c4ccccc4)nc(C)n3c2=O)c1`, 961 s.

On to `CCC(C)NC(=O)N1CC(n2cc(C(=O)N3CCOCC3)nn2)C1` (centres undefined), for which the RP-LC retention time amounted to 608 s. Next, `COc1ccc(NC(=O)/C=C/c2ccc(Cl)cc2)cc1`: 1090 s; `CC(=O)Nc1cccc(N2CC(C(=O)NC3CCCCCCC3)CC2=O)c1` (centres undefined): 731 s; `O=C(CN1C(=O)CCC1=O)NC1CCCC(OC(=O)Nc2ccc(F)cc2)C1` (centres undefined): 674 s.

`CC(C)Cc1noc(C2(F)CCN(S(=O)(=O)c3ccc(C(C)(C)C)cc3)CC2)n1` yielded an RP-LC retention time of 601 s. In turn, `CN1C(=O)c2ccccc2Oc2ccc(C(=O)NCc3ccco3)cc21` had an RP-LC retention time of 788 s.

`O=C(NCCn1nnc2cc(C(=O)N3CCCCC3)ccc21)NC1CCCC1` yielded an RP-LC retention time of 661 s. Turning to `O=C(Cn1c(=O)cc(-c2nc(C3CC3)no2)c2ccccc21)NCc1cccs1`, the RP-LC retention time was found to be 882 s.

`COc1ccc(CNC(=O)Nc2cc3c(cc2Oc2ccccc2)n(C)c(=O)n3C)cc1` gave an RP-LC retention time of 840 s. Next, `CCCCN1CCN(C(=O)c2cn3cc(Cl)ccc3n2)CC1`: 589 s; `Cc1ccc(Nc2nc(C(=O)NC3CCCCC3)nc3ccccc23)cc1`: 906 s; `CCCc1nc(-c2ccnc(N3CCOCC3)c2)no1`: 749 s. `Nc1c(-c2nnc(SCC(=O)N3CCOCC3)n2CC2CCCO2)sc2ncccc12` (centres undefined) yielded an RP-LC retention time of 641 s. Next, `CCCCCCCCCCNCCSSCc1ccc(Cl)cc1`: 1120 s. Next, `COc1cccc(CNC(=O)C2(C)CCCN(C(=O)Nc3ccc(F)c(Cl)c3)C2)c1` (centres undefined): 959 s; `Cc1ccccc1CNS(=O)(=O)c1cc(-c2[nH]ncc2C(=O)N(C)C)oc1C`: 701 s.

`CCc1ccc2nc(C)cc(C(=O)NC)c2c1` came in with an RP-LC retention time of 568 s. Next, `CCc1ccc(CNC(=O)CC2CCN(C(=O)c3[nH]c(C)c(C(=O)OC)c3C)CC2)cc1`: 795 s; `CC(=O)N1c2ccc(S(=O)(=O)NCCOc3ccc(F)cc3)cc2CC1C` (centres undefined): 798 s; `CN1C(=O)COc2ccc(-c3csc(NC(=O)c4cccc(Br)c4)n3)cc21`: 1060 s.

`CC(=O)N1CC(C)Oc2ccc(S(=O)(=O)N3CCC(c4ccncc4)CC3)cc21` (centres undefined) gave an RP-LC retention time of 572 s. `Cc1ccc(S(=O)(=O)N2CCC(c3cc4n(n3)CCCN(C)C4=O)CC2)cc1C` yielded an RP-LC retention time of 806 s. Compound `NC(=O)C1CCN(C(=O)CN2c3ccccc3NC3=C(C(=O)CCC3)C2c2cccs2)CC1` (centres undefined) had an RP-LC retention time of 630 s.

Take `CCC(C)NC(=O)c1cc2c(n(-c3ccc(C(F)(F)F)cc3)c1=O)CCCC2=O` (centres undefined): the RP-LC retention time stood at 946 s. Next, `CCOc1ccc(CNC(=O)C2=C3CCCN3c3ccc(F)cc3S2(=O)=O)cc1`: 892 s; `NC(=O)Cn1cnc2nc(N3CCC(C(=O)NC4CC4)CC3)sc2c1=O`: 566 s; `Cc1cc(=O)n(CC(=O)Nc2cc(F)ccc2C)c(N)n1`: 608 s. In turn, `Cc1c(-c2noc(-c3ccccc3)n2)nnn1-c1ccccc1` yielded an RP-LC retention time of 1060 s. Turning to `Cc1cccc(-c2noc(CN3C(=O)COc4ccccc43)n2)c1`, the RP-LC retention time was 1030 s.

In turn, `Cc1ccc(NC(=O)N2CCC(c3nc(CCNC(=O)C(C)C)cs3)CC2)cc1` had an RP-LC retention time of 750 s.

The compound `CCCOc1ccc(-c2csc(NC(=O)c3sc(C)nc3C)n2)cc1` showed an RP-LC retention time of 1080 s. To `O=C(Cc1cc(-c2ccc(F)cc2)on1)NCCc1c[nH]c2ccccc12` belongs 824 s; to `CN1CCN(CCNC(=O)Cn2c3ccccc3c3cnn(C)c(=O)c32)CC1`, 570 s.

`CN1C(=O)CCc2cc(NS(=O)(=O)c3cccc4nsnc34)ccc21` returned an RP-LC retention time of 716 s. To `CCOC(=O)C1CCN(c2cc3c(cc2NC(=O)C(C)(C)C)n(C)c(=O)c(=O)n3C)CC1` belongs 844 s; to `O=C(NC1CCN(c2cc(-c3ccc(Cl)cc3)[nH]n2)C1)c1ccccc1Br` (centres undefined), 787 s.
